Values quoted from earlier work as cited in patent US12440459B2, “Norepinephrine compositions and methods therefor” (Nevakar Injectables Inc., priority 2017, dated 2025).

Conditions: Int J Toxicol. 2002; 21 Suppl 2:19-94

SMILES: COc1ccc(O)c(C(C)(C)C)c1 [butylated hydroxyl anisole]
- renal and hepatic damage: some renal and hepatic damage
